Where “and” joins values, the source holds several entries; their conditions need not be identical. Equal entries are not always repeated. Starred links: 1 amine or outer side, 2 acyl side, 3 side chain; linkers in the order of their positions; H or OH if unused. Non-standard residues stand in square brackets, D forms with d. Residues, ends and D or L forms follow the SMILES beside them. azaβ3(1Nal) = O=C(CN(Cc1cccc2ccccc12)N[*:1])[*:2]
What was measured:
S. aureus Mu3 (MRSA) = experiment: microbe, parasite or virus in culture; settings: Mu3
Method in brief: (§1)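 Broth microdilution in MHB or CAMHB with an inoculum of 5 × 10^5 CFU/well; compounds were tested from 1 to 128 μM. Plates were incubated 18–20 h at 35°C (±2°C) and read spectrophotometrically. MIC and MBC were determined in triplicate.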

S. aureus N315 (MRSA) = experiment: microbe, parasite or virus in culture; settings: N315
Method in brief: as §1

S. aureus 33845 = experiment: microbe, parasite or virus in culture; settings: 33845
Experimental: (10−4 M final concentrations). At selected time intervals, 100 μl of reaction mixture was collected, quenched by 200 μl 95% EtOH, and adjusted at pH 2 to prevent peptide adsorption to serum proteins. […] Supernatants were analyzed by RP-HPLC on an Xbridge C18 column with a linear gradient of water, 0.08% TFA, and acetonitrile with 1% TFA. HPLC peak areas were used to calculate the percentages of intact compound remaining at the various time points. MIC and MBC values were determined in triplicate in many ESKAPE clinical isolates, including a dozen MDR S. aureus, by the broth microdilution method. Peptidomimetics and antibiotics were assayed in a concentration range of 1 to 128 μM. The bacterial inoculum (5 × 10^5 colony-forming units [CFUs]/well) was prepared in MHB or CAMHB (150 μl). A Biotek Synergy 2 spectrophotometer was used to record the results after 18–20 h incubation at 35°C (±2°C). […] After every hour of culture for 4 h, serial dilutions were plated on BHI plates and incubated overnight at 37°C, and then the CFUs were counted and expressed as log CFU/ml. Phosphate-buffered saline (PBS)-exposed S. aureus MRSA was included as a control.
Supplementary file pbio.3000337.s007.docx: S1 Table Antibacterial activity of the 4 peptidomimetics focusing on 9 S. aureus MDR clinical isolates. Clinical isolates BCB/POE and 740404 DUN are from human sepsis. The other strains are from catheter infections or suppurating wounds. Brilacidin was used as a control. MDR, multidrug resistant. (DOCX) Click here for additional data file.

MRSA = experiment: Membrane permeation, SYTO Green fluorescence; assay type: cell-based, S. aureus
Experimental: Permeation assays were also performed on gram-positive S. aureus membranes (MSSA and MRSA) by fluorescence assay [31] with SYTO Green nucleic acid stain (Life Technologies) in black flat-bottom 96-well microtiter plates (Greiner) in biological triplicate. Bacteria were grown to 0.3–0.4 OD600 in CAMHB at 37°C and centrifuged at 3,500 tr/min for 10 min. The pellet was washed and dissolved in PBS to an absorbance of 0.4 at 600 nm (approximately 2.10^8 CFU/ml). SYTO Green was added to the cells at a 5 μM final concentration, with dark incubation for 30 min. The amount of 50 μL of bacteria/SYTO Green mixture was added to each well containing compounds serially diluted in PBS, and fluorescence was measured at 37°C for up to 12 h using a spectrophotometer (BIOTEK, Tungsten-Halogen Lamp) with 485 nm excitation and 525 nm emission wavelengths.

E. coli ML-35p = experiment: Inner membrane permeability, ONPG cleavage; assay type: cell-based; settings: concentration near MIC
Experimental: Outer and inner membrane permeability was determined on E. coli ML-35p, a lactose permease-deficient strain [8]. Permeation assays were carried out on 100 μl MHB from bacteria cultures grown to 0.15 OD600 (10^7 CFU/ml). Nitrocefin (20 μg/ml) was added to the tested molecules at a concentration near to their MICs, and cleavage was monitored by light absorption at 500 nm (outer membrane monitoring). Inner membrane monitoring of cleavage of ONPG (100 μg/ml) and substrate was monitored at 420 nm. Polymyxin B was a positive control, while a bacterial suspension in MHB was the negative control. Permeation assays were also performed on gram-positive S. aureus membranes (MSSA and MRSA) by fluorescence assay with SYTO Green nucleic acid stain (Life Technologies) in black flat-bottom 96-well microtiter plates (Greiner) in biological triplicate. Bacteria were grown to 0.3–0.4 OD600 in CAMHB at 37°C and centrifuged at 3,500 tr/min for 10 min. The pellet was washed and dissolved in PBS to an absorbance of 0.4 at 600 nm (approximately 2.10^8 CFU/ml). […] The amount of 50 μL of bacteria/SYTO Green mixture was added to each well containing compounds serially diluted in PBS, and fluorescence was measured at 37°C for up to 12 h using a spectrophotometer (BIOTEK, Tungsten-Halogen Lamp) with 485 nm excitation and 525 nm emission wavelengths.

S. aureus Newman = experiment: SEM and TEM after treatment at MIC; assay type: cell-based; settings: S. aureus treated at the MIC, 2 h 37°C
Experimental: S. aureus Newman and E. coli K12 were cultured in MHB to an OD600 of 0.5 (10^8 CFU/ml). After adding peptides, samples were incubated at 160 rpm for 2 h at 37°C before centrifugation. Bacteria were exposed to pseudopeptide concentrations at their MIC. Untreated controls were prepared under identical conditions. Cell pellets were obtained after cell suspension centrifugation (1,000–3,000g for 5 min). […] S. aureus Newman samples were embedded in 2% agar and dehydrated in a graded series of increasing ethanol concentrations (50, 70, 90, and 100% v/v). For E. coli K12, the samples were placed on a 0.2 μm filter disc, dehydrated in a series of increasing ethanol concentrations, and vacuum dried for 48 h. For SEM observation, specimens were obtained after preparation with a Leica EM CPD300 critical point dryer. A Leica EM ACE200 was used for gold palladium metallization for 30 s. Sample observation was performed with a JEOL JSM-6301F microscope at 7 kV with a 15 mm work distance. TEM was also used to visualize the morphology and intracellular alteration of peptide-treated bacterial cells. For this, bacteria were grown and incubated with AMPs as described above for SEM sample preparation, and controls were prepared in standard medium. Cell pellets were also prepared as described above. […]

S. aureus = experiment: Intracellular ATP levels of SCV versus normal colonies from skin abscesses; assay type: cell-based; settings: individual values
Experimental: For the cutaneous abscess model, the mice were randomly divided into 5 sets. The mice were anesthetized with isoflurane, their dorsal fur shaved, and their skin disinfected with 70% ethanol. An overnight culture of S. aureus MRSA or P. aeruginosa LESB58 was washed with 0.9% NaCl, and then a subcutaneous injection of 2 × 10^9 CFUs and an equal amount of sterile Cytodex microcarrier beads (20 mg.ml^−1, Sigma) for S. aureus MRSA, or 10^8 CFUs for P. aeruginosa were injected into the shaved area. […] Mice were monitored every day and then euthanized with CO2 on Day 6 or on Day 3. Abscesses were excised, measured, and homogenized in PBS using an Ultra-Turax. Serial dilutions of the samples were plated on BHI (MRSA) or 2YT medium (LESB58) plates and then incubated overnight at 37°C. Afterward, the CFUs were counted and expressed as log CFU/ml. Dermonecrosis areas were calculated according to the formula π × L × W. ATP levels were determined with an ATP assay kit (Promega) according to manufacturer instructions on sets of 5 colonies harboring the SCV phenotype, and sets of 5 colonies harboring a normal phenotype, after growth on BHI plates.

SMILES	MIC (S. aureus Mu3 (MRSA))	MIC (S. aureus N315 (MRSA))	MIC (S. aureus 33845) [mg/L^-1]	Membrane permeation (leakage) (MRSA)	Inner membrane permeation (E. coli ML-35p)	Cell wall erosion by electron microscopy (S. aureus Newman)	Intracellular ATP level, 'normal growing' (S. aureus; 'normal growing' colonies from MRSA abscesses of mice treated IV with 1.5 mg.kg-1)	Intracellular ATP level, SCV (S. aureus; SCV from MRSA abscesses of mice treated IV with 1.5 mg.kg-1)
CC(C)[C@@H]1NC(=O)[C@H](CCCNC(=N)N)NC(=O)[C@H](CCCNC(=N)N)NC(=O)[C@H](Cc2c[nH]c3ccccc23)NC(=O)[C@H](Cc2ccccc2)NC(=O)[C@H](Cc2ccccc2)NC(=O)[C@H](CCCCN)NC1=O [Pep18] (cyclo(FFWRRVK))	8 (8.2) μM	8 (8.2) μM						
CC(C)[C@@H]1NC(=O)[C@H](CCCNC(=N)N)NC(=O)[C@H](CCCNC(=N)N)NC(=O)CN(Cc2cccc3ccccc23)NC(=O)[C@H](Cc2ccccc2)NC(=O)CN(Cc2cccc3ccccc23)NC(=O)[C@H](CCCCN)NC1=O [Pep19] (cyclo([azaβ3(1Nal)]F[azaβ3(1Nal)]RRVK))	4 (4.5) μM	4 (4.5) μM	16	most active	most active	eroded	128624 AU and 143636 AU and 122235 AU and 111054 AU and 122356 AU	21955.1 AU and 16114.9 AU and 17911.8 AU and 16800 AU and 28088.5 AU

Source: article PMC6615598, “Novel antibiotics effective against gram-positive and -negative multi-resistant bacteria with limited resistance” (PLoS Biology, 2019)
